1 substance from patent US12076330B2, “Inhibition of lipofuscin aggregation by molecular tweezers” (The Regents of the University of California, priority 2018, dated 2024) can be followed below.

Entries after “also recorded” stand apart in the source; their conditions may differ.

Holding throughout (format): cell-based, human
The test system of series [1] is lipofuscin (A2E) aggregation in ARPE-19 cells (retinal pigmented epithelium). Nature of the series: Lipofuscin A2E accumulation/aggregation in ARPE-19 cells, fluorescence microscopy after 6 h. The procedure: (§1) Panel A) CLR01 in PBS and lipofuscin A2E were added to the cells at the indicated times. Cells were incubated up to 6 h in all cases and were imaged using a fluorescence microscope for visualization of lipofuscin autofluorecence (red) and cell nuclei (DAPI, blue). Panel B) Quantification of the data shown in panel A (N=15 per condition). C) Confocal microscopy images showing that lipofuscin colocalizes with the Lysosomal-membrane marker lamp1.
To test the effect of CLR01 on lipofuscin aggregation, human, ARPE-19 cells (retinal pigmented epithelium; RPE) were treated with lipofuscin (A2E) in the absence or presence of CLR01 and imaged by fluorescence microscopy at the end of 6 h of incubation (FIG. 1, panel A), as follows: • Condition 1—negative control—20 μl of PBS was added to the cells at t=0 and 20 μl of DMSO at t=1.5 h. • Condition 2—safety control—CLR01 in PBS at final concentration of 100 μM was added to the cells at t=0 and DMSO at t=1.5 h. • Condition 3—positive control—PBS was added to the cells at t=0 and lipofuscin A2E in DMSO at final concentration of 100 μM at t=1.5 h. Lipofuscin A2E is a specific type of lipofuscin enriched in N-retinylidene-N-retinylethanolamine (A2E), which is derived from 11-cis-retinal and accumulates in the retinal pigmented epithelium (Boyer et al. (2012) J. Biol. Chem. 287: 22276-22286). • Condition 4—CLR01 in PBS at final concentration of 100 μM was added to the cells at t=0, after 1.5 h, the media was removed, the cells were washed with F12 medium, and new media was added. Lipofuscin A2E in DMSO at final concentration of 100 μM was added at t=1.5 h. • Condition 5—Lipofuscin A2E in DMSO was added to the cells at t=0 and CLR01 in PBS at final concentration of 100 μM was added at t=1 h.

Series [2] has as its system lysosomes (LAMP-1) in ARPE-19 cells. The experiment in a line: Confocal imaging of lipofuscin A2E and LAMP-1 in ARPE-19 cells. The procedure:
as §1

Series [3] relates to pre-formed lipofuscin (A2E) aggregates in ARPE-19 cells. Nature of the series: Effect on pre-formed lipofuscin aggregates in ARPE-19 cells (A2E 10 h, wash, CLR01 12 h). The note with it: A2E 100 μM for 10 h, CLR01 100 μM for 12 h. The procedure:
FIG. 2, panel A) CLR01 in PBS and lipofuscin A2E were added to the cells at the indicated times. Cells were incubated up to 22 hours in all cases and were imaged using a fluorescence microscope for visualization of lipofuscin autofluorecence (red) and cell nuclei (DAPI, blue). FIG. 2, panel B) Quantification of the data shown in […] (N=15 per condition). Condition 1—negative control—20 μl of DMSO was added to the cells at t=0. After 10 h, the media was removed, the cells were washed with F12 medium, and new media was added. Condition 2—positive control—Lipofuscin A2E in DMSO at final concentration of 100 μM was added to the cells at t=0. After 10 h, the media was removed, the cells were washed with F12 medium, and new media was added. Condition 3—Lipofuscin A2E in DMSO was added to the cells at t=0. After 10 h, the media was removed, the cells were washed with F12 medium, and new media was added. CLR01 in PBS at final concentration of 100 μM was added at t=10 h.
The effect of CLR01 on pre-formed lipofuscin aggregates was tested as well. Human, ARPE-19 cells were treated with lipofuscin (A2E) for 10 h (to let lipofuscin aggregates form). Upon washing the cells to remove A2E from the media, CLR01 was added to the medium for an additional period of 12 h. Cells were then imaged by fluorescence microscopy and fluorescence quantified (FIG. 2). […]

As for CLR01, in series [1] (ARPE-19 retinal cells, CLR01 100 μM, lipofuscin A2E 100 μM), the “inhibition of lipofuscin accumulation and aggregation (overall finding)” value was “inhibits lipofuscin accumulation and aggregation; also recorded: powerfully inhibits the formation of lipofuscin aggregates”. Further, the “harm to the cells (safety control)” value in series [1] (condition 2: CLR01 100 μM at t=0, DMSO at t=1.5 h, no A2E, ARPE-19 cells, 6 h) is “did not harm the cells”. Moreover, in series [1] (condition 4: CLR01 100 μM at t=0, washed out after 1.5 h, then lipofuscin A2E 100 μM, ARPE-19 cells, 6 h), the “reduction of the accumulation of lipofuscin aggregates at 6 h” value is around 60%. Moreover, the “accumulation of lipofuscin aggregates” value in series [1] (condition 5: lipofuscin A2E at t=0, CLR01 100 μM added at t=1 h, ARPE-19 cells, 6 h) is reported as “reduced almost to the negative-control level”. In series [2], the lysosome integrity result is “lysosome integrity was not affected”. For the same substance, the “clearing effect compared with condition 5 of FIG. 1 (CLR01 added simultaneously with lipofuscin loading)” value in series [3] is “lower”.
